Experimental data published in PubChem BioAssay (NCI).
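Briefly, cells in 96-well plates were exposed to five compound concentrations for 48 h, and endpoints were estimated by linear interpolation. At the GI50, growth is halved. At the TGI there is no net growth.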

Key:
Experiment in all cases: NCI tumour cell line growth inhibition, 48 h
786-0 renal = tested on: 786-0 renal
A498 renal = tested on: A498 renal
A549 NSCLC = tested on: A549 NSCLC
ACHN renal = tested on: ACHN renal
BT-549 breast = tested on: BT-549 breast
CAKI-1 renal = tested on: CAKI-1 renal
CCRF-CEM leukemia = tested on: CCRF-CEM leukemia
COLO 205 colon = tested on: COLO 205 colon
DU-145 prostate = tested on: DU-145 prostate
EKVX NSCLC = tested on: EKVX NSCLC
HCC-2998 colon = tested on: HCC-2998 colon
HCT-116 colon = tested on: HCT-116 colon
HCT-15 colon = tested on: HCT-15 colon
HL-60(TB) leukemia = tested on: HL-60(TB) leukemia
HOP-62 NSCLC = tested on: HOP-62 NSCLC
HOP-92 NSCLC = tested on: HOP-92 NSCLC
HS 578T breast = tested on: HS 578T breast
HT29 colon = tested on: HT29 colon
IGROV1 ovarian = tested on: IGROV1 ovarian
K-562 leukemia = tested on: K-562 leukemia
KM12 colon = tested on: KM12 colon
LOX IMVI melanoma = tested on: LOX IMVI melanoma
M14 melanoma = tested on: M14 melanoma
MALME-3M melanoma = tested on: MALME-3M melanoma
MCF7 breast = tested on: MCF7 breast
MDA-MB-231 breast = tested on: MDA-MB-231 breast
MDA-MB-435 = tested on: MDA-MB-435
MDA-MB-468 breast = tested on: MDA-MB-468 breast
MOLT-4 leukemia = tested on: MOLT-4 leukemia
NCI-H226 lung = tested on: NCI-H226 lung
NCI-H23 lung = tested on: NCI-H23 lung
NCI-H460 lung = tested on: NCI-H460 lung
NCI-H522 lung = tested on: NCI-H522 lung
NCI/ADR-RES ovarian = tested on: NCI/ADR-RES ovarian
OVCAR-3 ovarian = tested on: OVCAR-3 ovarian
OVCAR-4 ovarian = tested on: OVCAR-4 ovarian
OVCAR-5 ovarian = tested on: OVCAR-5 ovarian
OVCAR-8 ovarian = tested on: OVCAR-8 ovarian
PC-3 prostate = tested on: PC-3 prostate
RPMI-8226 leukemia = tested on: RPMI-8226 leukemia
RXF 393 renal = tested on: RXF 393 renal
SF-268 CNS = tested on: SF-268 CNS
SF-295 CNS = tested on: SF-295 CNS
SF-539 CNS = tested on: SF-539 CNS
SK-MEL-2 melanoma = tested on: SK-MEL-2 melanoma
SK-MEL-28 melanoma = tested on: SK-MEL-28 melanoma
SK-MEL-5 melanoma = tested on: SK-MEL-5 melanoma
SK-OV-3 ovarian = tested on: SK-OV-3 ovarian
SN12C renal = tested on: SN12C renal
SNB-19 CNS = tested on: SNB-19 CNS
SNB-75 CNS = tested on: SNB-75 CNS
SR leukemia = tested on: SR leukemia
SW-620 colon = tested on: SW-620 colon
T-47D breast = tested on: T-47D breast
TK-10 renal = tested on: TK-10 renal
U251 CNS = tested on: U251 CNS
UACC-257 melanoma = tested on: UACC-257 melanoma
UACC-62 melanoma = tested on: UACC-62 melanoma
UO-31 renal = tested on: UO-31 renal

O=C1Nc2cc(-c3ccc(NS(=O)(=O)c4ccc(C(F)(F)F)cc4)cc3)ccc2/C1=C/c1ccc[nH]1
GI50 (786-0 renal): 2550 nM | TGI (786-0 renal): 6.54 µM | GI50 (A498 renal): 1990 nM | TGI (A498 renal): 7.78 µM | GI50 (A549 NSCLC): 1310 nM | TGI (A549 NSCLC): 2920 nM | GI50 (ACHN renal): 2190 nM | TGI (ACHN renal): 5.31 µM | GI50 (BT-549 breast): 1960 nM | TGI (BT-549 breast): 5.54 µM | GI50 (CAKI-1 renal): 2570 nM | TGI (CAKI-1 renal): 11.1 µM | GI50 (CCRF-CEM leukemia): 2270 nM | TGI (CCRF-CEM leukemia): 6.82 µM | GI50 (COLO 205 colon): 2420 nM | TGI (COLO 205 colon): 8.25 µM | GI50 (DU-145 prostate): 1870 nM | TGI (DU-145 prostate): 4 µM | GI50 (EKVX NSCLC): 123 nM | TGI (EKVX NSCLC): 4.13 µM | GI50 (HCC-2998 colon): 1910 nM | TGI (HCC-2998 colon): 4.92 µM | GI50 (HCT-116 colon): 1820 nM | TGI (HCT-116 colon): 3.46 µM | GI50 (HCT-15 colon): 1420 nM | TGI (HCT-15 colon): 3.26 µM | GI50 (HL-60(TB) leukemia): 2900 nM | TGI (HL-60(TB) leukemia): 10.7 µM | GI50 (HOP-62 NSCLC): 1660 nM | TGI (HOP-62 NSCLC): 4.7 µM | GI50 (HOP-92 NSCLC): 1100 nM | TGI (HOP-92 NSCLC): 3.79 µM | GI50 (HS 578T breast): 1960 nM | TGI (HS 578T breast): 10.3 µM | GI50 (HT29 colon): 2210 nM | TGI (HT29 colon): 5.14 µM | GI50 (IGROV1 ovarian): 3.31 µM | TGI (IGROV1 ovarian): 15 µM | GI50 (K-562 leukemia): 2480 nM | TGI (K-562 leukemia): 11 µM | GI50 (KM12 colon): 1940 nM | TGI (KM12 colon): 7.83 µM | GI50 (LOX IMVI melanoma): 1630 nM | TGI (LOX IMVI melanoma): 2980 nM | GI50 (M14 melanoma): 3.11 µM | TGI (M14 melanoma): 13 µM | GI50 (MALME-3M melanoma): 3.05 µM | TGI (MALME-3M melanoma): 13.6 µM | GI50 (MCF7 breast): 81.8 nM | TGI (MCF7 breast): 1470 nM | GI50 (MDA-MB-231 breast): 2280 nM | TGI (MDA-MB-231 breast): 8.29 µM | GI50 (MDA-MB-435): 1860 nM | TGI (MDA-MB-435): 3.95 µM | GI50 (MDA-MB-468 breast): 31.1 nM | TGI (MDA-MB-468 breast): 309 nM | GI50 (MOLT-4 leukemia): 2490 nM | TGI (MOLT-4 leukemia): 10.8 µM | GI50 (NCI-H226 lung): 1100 nM | TGI (NCI-H226 lung): 6.79 µM | GI50 (NCI-H23 lung): 1070 nM | TGI (NCI-H23 lung): 2830 nM | GI50 (NCI-H460 lung): 437 nM | TGI (NCI-H460 lung): 1770 nM | GI50 (NCI-H522 lung): 1440 nM | TGI (NCI-H522 lung): 3.32 µM | GI50 (NCI/ADR-RES ovarian): 2590 nM | TGI (NCI/ADR-RES ovarian): 8.6 µM | GI50 (OVCAR-3 ovarian): 1430 nM | TGI (OVCAR-3 ovarian): 2920 nM | GI50 (OVCAR-4 ovarian): 1100 nM | TGI (OVCAR-4 ovarian): 7.33 µM | GI50 (OVCAR-5 ovarian): 1800 nM | TGI (OVCAR-5 ovarian): 7.06 µM | GI50 (OVCAR-8 ovarian): 1910 nM | TGI (OVCAR-8 ovarian): 4.07 µM | GI50 (PC-3 prostate): 1570 nM | TGI (PC-3 prostate): 4.83 µM | GI50 (RPMI-8226 leukemia): 1330 nM | TGI (RPMI-8226 leukemia): 4.25 µM | GI50 (RXF 393 renal): 1960 nM | TGI (RXF 393 renal): 4.37 µM | GI50 (SF-268 CNS): 1720 nM | TGI (SF-268 CNS): 3.86 µM | GI50 (SF-295 CNS): 2040 nM | TGI (SF-295 CNS): 4.67 µM | GI50 (SF-539 CNS): 1430 nM | TGI (SF-539 CNS): 3.26 µM | GI50 (SK-MEL-2 melanoma): 3.14 µM | TGI (SK-MEL-2 melanoma): 12.2 µM | GI50 (SK-MEL-28 melanoma): 2260 nM | TGI (SK-MEL-28 melanoma): 5.68 µM | GI50 (SK-MEL-5 melanoma): 4.13 µM | TGI (SK-MEL-5 melanoma): 15.6 µM | GI50 (SK-OV-3 ovarian): 2200 nM | TGI (SK-OV-3 ovarian): 11.6 µM | GI50 (SN12C renal): 1590 nM | TGI (SN12C renal): 3.17 µM | GI50 (SNB-19 CNS): 2530 nM | TGI (SNB-19 CNS): 11.3 µM | GI50 (SNB-75 CNS): 2290 nM | TGI (SNB-75 CNS): 13.3 µM | GI50 (SR leukemia): 1970 nM | TGI (SR leukemia): 7 µM | GI50 (SW-620 colon): 1870 nM | TGI (SW-620 colon): 3.68 µM | GI50 (T-47D breast): 230 nM | TGI (T-47D breast): 3.86 µM | GI50 (TK-10 renal): 1270 nM | TGI (TK-10 renal): 6.71 µM | GI50 (U251 CNS): 1610 nM | TGI (U251 CNS): 3.12 µM | GI50 (UACC-257 melanoma): 2390 nM | TGI (UACC-257 melanoma): 7.33 µM | GI50 (UACC-62 melanoma): 2130 nM | TGI (UACC-62 melanoma): 9.73 µM | GI50 (UO-31 renal): 1510 nM | TGI (UO-31 renal): 10.3 µM
